Test results published in patent US7579353B2, “Pyridinone derivatives against malaria” (Glaxo Group Limited, priority 2005, dated 2009).
In brackets after ≈: the same amount, converted by molar mass. Like-named read-outs stand apart in the source and are kept apart here.

Columns and labels:
[1] = Compound solubility determination (gross and equilibrium solubility; FaSSIF, FeSSIF, pH 7.4 PBS, pH 1.0 0.1N HCl, pH 4.5 sodium citrate); format: physicochemical; details: thermodynamic from solid
Description: Compound Solubility Determination
An amount of 3 mg solid compound with LC-MS purity ≧95% was required. This amount was split between 3 different glass vials (1.8 ml volume each), placing 1 mg compound into each one.
Organic solvents of HPLC grade were used. Ultra pure water (Milli-Q grade) was used. Buffers were prepared with ultra pure water and filtered using 0.45μ cameo filters. The compositions of each solvent employed in this assay are described below (part III).
2. Determination of Equilibrium Solubility (Assuming Chemical Stability in the Desired Solvent is not a Problem).
For each of the three vial samples prepared as described above, in which the amount of compound was totally dissolved, the following procedure was subsequently carried out: • a) A small amount (approx. 0.1 mg) of additional solid compound was added to the vial to maintain an excess of the compound in the mixture in the form of undissolved solid. • b) The samples were magnetically stirred for 24 hr. If required, additional solid compound (0.1 mg) was added to maintain excess of it and then the samples were stirred again. • c) Then the samples were filtered (Millipore Milex filters nylon 0.2 um) and three aliquots were taken (one from each of the three vials) and analysed by LC-MS. • d) The pH of the final solution in each sample was measured with a pH-meter (WTW pH330i and a pH-electrode Sentix 41).
3. LC-MS Assay for Analytical Quantification
All filtered aliquots were analysed by LC-MS. The analysis was carried out with a Luna 5 μC18 (2) column 4.6×150 mm, using a HP1100 HPLC instrument interfaced with a Waters ZMD-2000 MS spectrometer. The concentration of the final sample as prepared above was calculated from that of a reference calibration curve obtained from serial dilutions of a 2 mM solution of the compound under investigation in DMSO (Aldrich cat. ref.: 27685-5) stock solution.
The analysis of all LC-MS data was performed with MassLynx 3.4 software. Statistical and graphic analysis of data was performed using Microsoft Excel. The concentration (uM) and solubility (ug/ml) for each compound was calculated using the peak areas from the sample and those from the calibration curve.
A) FaSSIF is a solvent which simulates the Fasted State of the Intestinal Fluid. (FaSSIF: Fasted State Simulated Intestinal Fluid).
B) FeSSIF is a solvent which simulates the Fed State of the Intestinal Fluid. (FeSSIF: Fed State Simulated Intestinal Fluid).
C) Solubility at pH 7.4 was determined in phosphate buffered saline (PBS) (Fluka cat. ref: 79383)
D) Solubility at pH 1.0 was determined in 0.1N HCl solution (Scharlau AL0744010C)
E) Solubility at pH 4.5 was determined in sodium citrate 0.5M solution. (Aldrich 25, 127-5)

Plasmodium falciparum = experiment: In vitro anti-malarial activity against Plasmodium falciparum, IC50 assay / [3H]-hypoxanthine incorporation assay; format: cell-based; details: Erythrocyte, parasitized red blood cells, 48 hours
[2] = 0.1N HCl solution, simulated gastric fluid, pH 1 (HCl), read-out: Solubility at pH 1 (HCl)
[3] = FaSSIF (fasted state simulated intestinal fluid), fassif, read-out: Solubility in FaSSIF
[4] = FeSSIF (fed state simulated intestinal fluid), fessif, read-out: Solubility in FeSSIF
[5] = phosphate buffered saline (PBS), aqueous buffer, pH 7.4 (PBS), read-out: Solubility at pH 7.4 (PBS)
[6] = sodium citrate 0.5M solution, aqueous buffer, pH 4.5 (Na citrate), read-out: Solubility at pH 4.5 (Na citrate)

Row | solubility at 24 h [1, 2] [µg/mL] | solubility at 24 h [1, 3] [µg/mL] | solubility at 24 h [1, 4] [µg/mL] | solubility at 24 h [1, 5] [µg/mL] | solubility at 24 h [1, 6] [µg/mL] | IC50 (Plasmodium falciparum) [µg/mL] | Compound
1 | 10 to 50 (≈ 25.7 to 128 µM) | 1 to 5 (≈ 2.57 to 12.8 µM) | 5 to 10 (≈ 12.8 to 25.7 µM) | 1 to 5 (≈ 2.57 to 12.8 µM) | 1 to 5 (≈ 2.57 to 12.8 µM) | < 0.125 | Cc1[nH]c(C)c(-c2ccc(-c3ccc(Cl)cc3)nc2)c(=O)c1Br [Example 19, 5-Bromo-6′-(4-chlorophenyl)-2,6-dimethyl-3,3′-bipyridin-4(1H)-one]
2 | ≥ 50 | 10 to 50 (≈ 24.6 to 123 µM) | – | 5 to 10 (≈ 12.3 to 24.6 µM) | 10 to 50 (≈ 24.6 to 123 µM) | < 0.125 | Cc1[nH]c(C)c(-c2ccc(CCc3ccc(C(F)(F)F)cc3)nc2)c(=O)c1Cl [Example 45, 5-Chloro-2,6-dimethyl-6′-{2-[4-(trifluoromethyl)phenyl]ethyl}-3,3′-bipyridin-4(1H)-one]
3 | ≥ 50 | 10 to 50 (≈ 23.6 to 118 µM) | – | 10 to 50 (≈ 23.6 to 118 µM) | 10 to 50 (≈ 23.6 to 118 µM) | < 0.125 | Cc1[nH]c(C)c(-c2ccc(-c3ccccc3C(F)(F)F)nc2)c(=O)c1Br [Example 18, 5-Bromo-2,6-dimethyl-6′-{2-[trifluoromethyl]phenyl}-3,3′-bipyridin-4(1H)-one]
4 | ≥ 50 | 10 to 50 | – | 1 to 5 | ≥ 50 | < 0.125 | CCCCCCCc1ccc(-c2c(C)[nH]c(C)c(Cl)c2=O)cn1.Cl [Example 48, 5-Chloro-6′-(n-heptyl)-2,6-dimethyl-3,3′-bipyridin-4(1H)-one]
5 | ≥ 50 | 5 to 10 (≈ 12.5 to 25 µM) | – | 1 to 5 (≈ 2.5 to 12.5 µM) | 5 to 10 (≈ 12.5 to 25 µM) | < 0.125 | Cc1[nH]c(C)c(-c2ccc(-c3ccc4c(c3)OCO4)nc2)c(=O)c1Br [Example 53]
6 | ≥ 50 | 10 to 50 (≈ 30.4 to 152 µM) | – | 10 to 50 (≈ 30.4 to 152 µM) | 10 to 50 (≈ 30.4 to 152 µM) | < 0.125 | Cc1[nH]c(C)c(-c2ccc(-c3ccccc3F)nc2)c(=O)c1Cl [Example 37, 5-Chloro-6′-(2-fluorophenyl)-2,6-dimethyl-3,3′-bipyridin-4(1H)-one]
7 | ≥ 50 | 5 to 10 (≈ 12.8 to 25.7 µM) | – | 1 to 5 (≈ 2.57 to 12.8 µM) | 5 to 10 (≈ 12.8 to 25.7 µM) | < 0.125 | Cc1[nH]c(C)c(-c2ccc(-c3ccccc3Cl)nc2)c(=O)c1Br [Example 21, 5-Bromo-6′-(2-chlorophenyl)-2,6-dimethyl-3,3′-bipyridin-4(1H)-one]
8 | 1 to 5 (≈ 2.53 to 12.6 µM) | 1 to 5 (≈ 2.53 to 12.6 µM) | 5 to 10 (≈ 12.6 to 25.3 µM) | < 1 | < 1 | < 0.125 | Cc1[nH]c(C)c(-c2cnc(-c3ccc(OC(F)(F)F)cc3)nc2)c(=O)c1Cl [Example 51, 3-Chloro-2,6-dimethyl-5-{2-[4-(trifluoromethyloxy)phenyl]-5-pyrimidinyl}-4(1H)-pyridinone]
9 | ≥ 50 | 1 to 5 (≈ 2.36 to 11.8 µM) | – | < 1 | < 1 | < 0.125 | Cc1[nH]c(C)c(-c2ccc(-c3cccc(C(F)(F)F)c3)nc2)c(=O)c1Br [Example 17, 5-Bromo-2,6-dimethyl-6′-{3-[trifluoromethyl]phenyl}-3,3′-bipyridin-4(1H)-one]
10 | 10 to 50 (≈ 25.2 to 126 µM) | < 1 | 1 to 5 (≈ 2.52 to 12.6 µM) | < 1 | < 1 | < 0.125 | Cc1[nH]c(C)c(-c2ccc(-c3ccc(C(F)(F)F)cc3F)nc2)c(=O)c1Cl [Example 58, 5-chloro-6′-[2-fluoro-4-(trifluoromethyl)phenyl]-2,6-dimethyl-3,3′-bipyridin-4(1H)-one]
